{"source": "patent US7696231B2", "about": "“Oxindole hydrazide modulators of protein tyrosine phosphatases (PTPs)” (Laboratoires Serono SA, priority 2001, dated 2010)", "key": {"PTP1B": {"target": "T1, PTP1B (Homo sapiens, UniProt P18031)", "T1 construct": "using the catalytic core of a human recombinant PTP, as an enzyme; made in house", "T1 sequence (P18031 3-277 limits assumed)": "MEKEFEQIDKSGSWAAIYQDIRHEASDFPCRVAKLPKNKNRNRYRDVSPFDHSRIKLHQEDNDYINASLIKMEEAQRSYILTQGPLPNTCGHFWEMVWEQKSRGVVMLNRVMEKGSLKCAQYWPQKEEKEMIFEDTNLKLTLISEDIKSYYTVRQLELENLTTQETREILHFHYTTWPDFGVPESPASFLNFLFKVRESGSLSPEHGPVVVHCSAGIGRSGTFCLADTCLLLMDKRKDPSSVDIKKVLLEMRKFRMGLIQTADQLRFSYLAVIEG", "experiment": "PTP Enzyme Assay (PTP1B)", "assay_type": "biochemical", "details": "catalytic core of human recombinant PTP, DiFMUP substrate at Km, 30 minutes at room temperature; read-out: inhibition (IC50) with regard to PTP1B", "excerpt": "(§1) The PTP Enzyme Assay aims at determining the extent of inhibition of the examined PTP (e.g. PTP1B, TC-PTP, PTP-β, DEP-1, LAR, SHP-1, SHP-2, GLEPP-1, PTP-κ, PTP-μ, VHR, hVH5) in the presence of a test compound. The inhibition is illustrated by IC50 values which denote the concentration necessary to achieve an inhibition of 50% of the given PTP.\n(§2) The cloning and expression of the catalytic domain of PTPs (e.g. PTP1B, TC-PTP, PTP-β, DEP-1, LAR, SHP-1, SHP-2, GLEPP-1, PTP-κ, PTP-μ, VHR, hVH5) maybe performed as described in J. Biol. Chem. 2000, 275(13), pp 9792-9796.\n(§3) Assays were performed in a 96 well plate format, using the catalytic core of a human recombinant PTP, as an enzyme and 6,8-DiFluoro-4-MethylUmbelliferyl Phosphate (DiFMUP, Molecular Probes, D-6567) as a substrate at the Km value which was predetermined for each enzyme. Compounds to be tested were dissolved in 100% DMSO at a concentration of 2 mM. […] The reaction ran for 30 minutes at room temperature before reading the fluorescence intensity on a Perkin-Elmer Victor 2 spectrofluorimeter (excitation at 355 nm, emission at 460 nm, for 0.1 s). The percentage of inhibition relative to the fluorescence observed in the presence of solvent (5% DMSO) alone was determined. The IC50 values for inhibition were determined in triplicates on at least 3 separate occasions."}, "db/db mice [1]": {"tested_on": "db/db mice", "experiment": "In vivo assay in db/db mice, fed animals (repeated oral administration)", "details": "5×50 mg/kg per os once daily during 5 days, blood glucose before and 16 hrs after the last drug administration", "method": "(§4) The following assay aims at determining the anti-diabetic effect of the test compounds of formula (I), in vivo in db/db mice using either fasted (to determine the postprandial glycemia right after a predetermined diet), or fed animals, to determine glycemia after a predetermined period of treatment.\n(§5) 2 groups of db/db mice, 6 animals each, were formed, in the first one mice were fasted during 20 hours, the second one comprises fed (ad libitum) mice.\nGroup 2: The fed animals (6) were administered (per os) a dose of 5×50 mg/kg of the test compound according to formula (I).\nMice were orally treated once daily during 5 days with compounds of formula (I). Blood glucose was determined before drug administration and 16 hrs after the last drug administration."}, "db/db mice [2]": {"tested_on": "db/db mice", "experiment": "In vivo assay in db/db mice, fasted animals (postprandial glycemia)", "details": "db/db mice fasted 20 hours, 100 mg/kg per os, blood glucose before and 4 hrs after drug administration", "method": "as §4, §5\nGroup 1: The fasted animals (6) were administered (per os) a dose of 100 mg/kg of the test compound according to formula (I).\nAfter oral administration with compounds of formula (I), they had access to commercial food (ad libitum). Blood glucose (postprandial glycemia) was determined before and 4 hrs after drug administration."}, "GLEPP-1": {"target": "T2, GLEPP-1 (Homo sapiens, UniProt Q16827)", "T2 construct": "using the catalytic core of a human recombinant PTP, as an enzyme; made in house", "T2 sequence (Q16827 938-1195 limits assumed)": "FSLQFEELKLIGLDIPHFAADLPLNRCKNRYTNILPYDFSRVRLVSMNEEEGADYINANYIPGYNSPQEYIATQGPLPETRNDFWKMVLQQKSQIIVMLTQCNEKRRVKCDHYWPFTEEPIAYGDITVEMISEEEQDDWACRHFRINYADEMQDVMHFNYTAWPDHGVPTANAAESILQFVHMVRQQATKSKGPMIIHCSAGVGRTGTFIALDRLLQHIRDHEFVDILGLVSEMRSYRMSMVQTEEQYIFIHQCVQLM", "experiment": "PTP Enzyme Assay (GLEPP-1)", "assay_type": "biochemical", "details": "catalytic core of human recombinant PTP, DiFMUP substrate at Km, 30 minutes at room temperature; read-out: inhibition (IC50) with regard to GLEPP-1", "excerpt": "as §1, §2, §3"}}, "note": "pIC50: −log10 of the molar value."}
{"smiles": "O=C(CCc1ccccc1)Nc1ccc(C(=O)NN=C2C(=O)Nc3ccc(I)cc32)cc1", "note": "[Example 1, N-(4-{[2-(5-Iodo-2-oxo-1,2-dihydro-3H-indol-3-ylidene)hydrazino]carbonyl}phenyl)-3-phenylpropanamide]", "values": [{"measurement": "pIC50", "setting": "PTP1B", "value": 6.47}, {"measurement": "reduction of the blood glucose level", "setting": "db/db mice [1]", "value": 22, "unit": "%"}, {"measurement": "reduction of blood glucose level induced by food intake (postprandial glycemia)", "setting": "db/db mice [2]", "value": 30, "unit": "%"}, {"measurement": "pIC50", "setting": "GLEPP-1", "value": "~6.30"}]}
{"smiles": "O=C(COc1ccc([N+](=O)[O-])cc1)NN=C1C(=O)Nc2ccc(I)cc21", "note": "[Example 18, N′-(5-Iodo-2-oxo-1,2 dihydro-3H-indol-3-ylidene)-2-(4-nitrophenoxy)acetohydrazide]", "values": [{"measurement": "reduction of blood glucose level induced by food intake (postprandial glycemia)", "setting": "db/db mice [2]", "value": 34, "unit": "%"}]}
{"smiles": "COC(=O)c1ccc(OCC(=O)NN=C2C(=O)Nc3ccc(I)cc32)cc1", "note": "[Example 23, Methyl 4-{2-[2-(5-iodo-2-oxo-1,2-dihydro-3H-indol-3-ylidene)hydrazino]-2-oxoethoxy}benzoate]", "values": [{"measurement": "reduction of the blood glucose level", "setting": "db/db mice [1]", "value": 30, "unit": "%"}]}
{"smiles": "O=C1Nc2ccc(I)cc2C1=NNC(=O)c1cccc(Oc2ccccc2)c1", "note": "[Example 26, N′-(5-Iodo-2-oxo-1,2-dihydro-3H-indol-3-ylidene)-3-phenoxybenzohydrazide]", "values": [{"measurement": "reduction of the blood glucose level", "setting": "db/db mice [1]", "value": 17, "unit": "%"}]}
{"smiles": "O=C1Nc2ccc(I)cc2C1=NNC(=O)c1ccc(NC(=O)c2ccccc2)cc1", "note": "[Example 50, N-(4-{[2-(5-Iodo-2-oxo-1,2-dihydro-3H-indol-3-ylidene)hydrazino]-carbonyl}phenyl)benzamide]", "values": [{"measurement": "reduction of blood glucose level induced by food intake (postprandial glycemia)", "setting": "db/db mice [2]", "value": 30, "unit": "%"}]}
{"smiles": "O=C(CCc1cccc(O)c1)Nc1ccc(C(=O)NN=C2C(=O)Nc3ccc(I)cc32)cc1", "note": "[Example 70, 3-(3-Hydroxyphenyl)-N-(4-{[2-(5-iodo-2-oxo-1,2-dihydro-3H-indol-3-ylidene)hydrazino]carbonyl}phenyl)propanamide]", "values": [{"measurement": "pIC50", "setting": "PTP1B", "value": 6.11}]}
